# Assay results taken from patent US9339034B2, “Use of thaxtomin for selective control of rice and aquatic based weeds” (MARRONE BIO INNOVATIONS, INC., priority 2009, dated 2016).
# Experiments:
# EO2 = assay: Greenhouse pot study, weed control; type: in vivo, Echinochloa spp.
# Source text: (§1) Moderate suppression (60%) was noted on Echinochloa colonum at 500 g a.i. per hectare.
# MON = assay: Greenhouse pot study, weed control; type: in vivo, Monorhoria vaginalis
# DSR (direct-seeded rice) = assay: Greenhouse pot study, effect on crop growth, direct-seeded rice; type: in vivo
# BYG = assay: Greenhouse pot study, weed control; type: in vivo, barnyardgrass
# ECC = assay: Greenhouse pot study, weed control; type: in vivo, Echinochloa colonum
# Source text: as §1
# Alisma plantago-aquatica = assay: Pot study, spray of pure thaxtomin A solutions, % control; type: in vivo, common waterplantain; Alisma plantago-aquatica; details: for % control: Alisma plantago-aquatica
# Protocol: (§2) A pot study was conducted to test the phytotoxicity of thaxtomin A on broadleaved, sedge and grass weeds. Seeds of two most common broadleaf (redstem; Ammannia spp. and common waterplantain; Alisma plantago-aquatica), sedge (smallflower umbrella sedge; Cyperus diiformis) and grass (sprangletop: Leptochloa uninervia) weeds each were planted in a plastic pots filled with heavy clay soil. The less than 1-inch tall plants grown under growth lights (12-h light/12-h dark) at 28° C. were sprayed with pure thaxtomin A solutions containing 0.05, 0.1, 0.2, and 0.4 mg thaxtomin A per mL of solvent (4% ethanol and 0.2% non-ionic surfactant). A solution of 4% ethanol+0.2% non-ionic surfactant without thaxtomin A was used as a control treatment. Same treatments were applied to three-inch tall rice plants grown submerged under growth lights at 28° C. […] All treatments were applied in three replicates. Treated plants were kept at 28° C. under growth lights and observed at three time points—5, 12 and 21 days after treatment—for visual symptoms of phytotoxicity and % control.
# Leptochloa sp = assay: as above; type: in vivo, sprangletop: Leptochloa uninervia
# Protocol: as §2
# AMM = assay: Greenhouse pot study, weed control; type: in vivo, Ammania spp.
# Source text: as §1
# barnyardgrass = assay: First study, weed control; type: in vivo; details: 500-1000 g a.i. per hectare
# WCN = assay: Greenhouse pot study, weed control; type: in vivo, Eleocharis dulcis
# Source text: (§3) The activity on susceptible and resistant biotypes of Scirpus mucronatus was somewhat weaker (70 to 75%) than that observed for other sedge weeds in this study.
# Cyperus sp = assay: Pot study, spray of pure thaxtomin A solutions, % control; type: in vivo, smallflower umbrella sedge; Cyperus diiformis
# Protocol: as §2
# CPD = assay: Greenhouse pot study, weed control; type: in vivo, Cyperus difformis
# Source text: as §1
# rice (S102, M104, M206) = assay: Pot study, phytotoxicity on rice plants; type: in vivo; details: three rice cultivars (S102, M104, M206); 0.05-0.4 mg/mL; each evaluation time point (5, 12, 21 days)
# Protocol: as §2
# MAQ = assay: Greenhouse pot study, weed control; type: in vivo, Marsilea quadrifolia
# Source text: as §3
# [1] = system: mono and dicotyledonous seedlings; details: cited from earlier work
# Ammania sp = assay: Pot study, spray of pure thaxtomin A solutions, % control; type: in vivo, redstem; Ammannia spp.
# Protocol: as §2
# SCM = assay: Greenhouse pot study, weed control; type: in vivo, Scirpus mucronatus
# Source text: as §3
# [2] = 5 DAYS, 0.05 mg/mL in 4% ethanol
# [3] = 5 DAYS, 0.1 mg/mL in 4% ethanol
# [4] = 5 DAYS, 0.2 mg/mL in 4% ethanol
# [5] = 5 DAYS, 0.4 mg/mL in 4% ethanol
# [6] = 12 DAYS, 0.05 mg/mL in 4% ethanol
# [7] = 12 DAYS, 0.1 mg/mL in 4% ethanol
# [8] = 12 DAYS, 0.2 mg/mL in 4% ethanol
# [9] = 12 DAYS, 0.4 mg/mL in 4% ethanol
# [10] = 21 DAYS, 0.05 mg/mL in 4% ethanol
# [11] = 21 DAYS, 0.1 mg/mL in 4% ethanol
# [12] = 21 DAYS, 0.2 mg/mL in 4% ethanol
smiles,measurement,setting,value
CN1C(=O)[C@](O)(Cc2cccc(O)c2)N(C)C(=O)[C@@H]1Cc1c[nH]c2cccc([N+](=O)[O-])c12 [thaxtomin A],% control,"EO2; EO2, 64 g/ha",0%
same,% control,"EO2; EO2, 125 g/ha",0%
same,% control,"EO2; EO2, 250 g/ha",20%
same,% control,"EO2; EO2, 500 g/ha",20%
same,% control,"EO2; EO2, 1000 g/ha",30%
same,% control,MON; 64 g/ha,0%
same,% control,MON; 125 g/ha,100%
same,% control,MON; 250 g/ha,100%
same,% control,MON; 500 g/ha,100%
same,% control,MON; 1000 g/ha,100%
same,effect on crop growth (rice),DSR (direct-seeded rice); 64 g/ha,10%
same,effect on crop growth (rice),DSR (direct-seeded rice); 125 g/ha,10%
same,effect on crop growth (rice),DSR (direct-seeded rice); 250 g/ha,10%
same,effect on crop growth (rice),DSR (direct-seeded rice); 500 g/ha,15%
same,effect on crop growth (rice),DSR (direct-seeded rice); 1000 g/ha,40%
same,% control,BYG; 64 g/ha,0%
same,% control,BYG; 125 g/ha,0%
same,% control,BYG; 250 g/ha,15%
same,% control,BYG; 500 g/ha,30%
same,% control,BYG; 1000 g/ha,40%
same,% control,ECC; 64 g/ha,0%
same,% control,ECC; 125 g/ha,0%
same,% control,ECC; 250 g/ha,35%
same,% control,ECC; 500 g/ha,60%
same,% control,ECC; 1000 g/ha,60%
same,control of common water plantain,Alisma plantago-aquatica; 0.2 mg/ml,complete control
same,% control,Alisma plantago-aquatica; [2],8a %
same,% control,Alisma plantago-aquatica; [3],28ab %
same,% control,Alisma plantago-aquatica; [4],40b %
same,% control,Alisma plantago-aquatica; [5],62b %
same,% control,Alisma plantago-aquatica; [6],40b %
same,% control,Alisma plantago-aquatica; [7],43b %
same,% control,Alisma plantago-aquatica; [8],87c %
same,% control,Alisma plantago-aquatica; [9],87c %
same,% control,Alisma plantago-aquatica; [10],83b %
same,% control,Alisma plantago-aquatica; [11],70b %
same,% control,Alisma plantago-aquatica; [12],100c %
same,% control,"Alisma plantago-aquatica; 21 DAYS, 0.4 mg/mL in 4% ethanol",98c %
same,% control,Leptochloa sp; [2],0%
same,% control,Leptochloa sp; [3],0%
same,% control,Leptochloa sp; [4],0%
same,% control,Leptochloa sp; [5],0%
same,% control,Leptochloa sp; [6],0a %
same,% control,Leptochloa sp; [7],2a %
same,% control,Leptochloa sp; [8],10b %
same,% control,Leptochloa sp; [9],10b %
same,% control,Leptochloa sp; [10],0a %
same,% control,Leptochloa sp; [11],3a %
same,% control,Leptochloa sp; [12],12a %
same,% control,"Leptochloa sp; 21 DAYS, 0.4 mg/mL in 4% ethanol, listed as Thaxtomin",17a %
same,% control,"Leptochloa sp; 21 DAYS, 0.4 mg/mL in 4% ethanol, listed as Thaxtomin A",17%
same,% control,AMM; 64 g/ha,0%
same,% control,AMM; 125 g/ha,30%
same,% control,AMM; 250 g/ha,90%
same,% control,AMM; 500 g/ha,100%
same,% control,AMM; 1000 g/ha,100%
same,activity on barnyardgrass,barnyardgrass,moderate activity
same,% control,WCN; 125 g/ha,35%
same,% control,WCN; 250 g/ha,85%
same,% control,WCN; 500 g/ha,85%
same,% control,WCN; 1000 g/ha,95%
same,% control,"Cyperus sp; Cyperus sp, 5 DAYS, 0.05 mg/mL in 4% ethanol",5a %
same,% control,"Cyperus sp; Cyperus sp, 5 DAYS, 0.1 mg/mL in 4% ethanol",12a %
same,% control,"Cyperus sp; Cyperus sp, 5 DAYS, 0.2 mg/mL in 4% ethanol",16a %
same,% control,"Cyperus sp; Cyperus sp, 5 DAYS, 0.4 mg/mL in 4% ethanol",25a %
same,% control,"Cyperus sp; Cyperus sp, 12 DAYS, 0.05 mg/mL in 4% ethanol",15a %
same,% control,"Cyperus sp; Cyperus sp, 12 DAYS, 0.1 mg/mL in 4% ethanol",75b %
same,% control,"Cyperus sp; Cyperus sp, 12 DAYS, 0.2 mg/mL in 4% ethanol",77b %
same,% control,"Cyperus sp; Cyperus sp, 12 DAYS, 0.4 mg/mL in 4% ethanol",73b %
same,% control,"Cyperus sp; Cyperus sp, 21 DAYS, 0.05 mg/mL in 4% ethanol",53b %
same,% control,"Cyperus sp; Cyperus sp, 21 DAYS, 0.1 mg/mL in 4% ethanol",90c %
same,% control,"Cyperus sp; Cyperus sp, 21 DAYS, 0.2 mg/mL in 4% ethanol",88c %
same,% control,"Cyperus sp; Cyperus sp, 21 DAYS, 0.4 mg/mL in 4% ethanol",83c %
same,% control,"Cyperus sp; sedge (Cyperus difformis), highest concentration (0.4 mg/mL)",75-80%
same,% control,CPD; 64 g/ha,0%
same,% control,CPD; 125 g/ha,85%
same,% control,CPD; 250 g/ha,100%
same,% control,CPD; 500 g/ha,100%
same,% control,CPD; 1000 g/ha,100%
same,phytotoxicity in rice cultivars,"rice (S102, M104, M206)",no phytotoxicity
same,% control,MAQ; 64 g/ha,20%
same,% control,MAQ; 125 g/ha,25%
same,% control,MAQ; 250 g/ha,40%
same,% control,MAQ; 500 g/ha,70%
same,% control,MAQ; 1000 g/ha,85%
same,"concentration causing cell swelling, necrosis and growth inhibition",[1],less than 1 uM
same,% control,"Ammania sp; Ammania sp, 5 DAYS, 0.05 mg/mL in 4% ethanol",0%
same,% control,"Ammania sp; Ammania sp, 5 DAYS, 0.1 mg/mL in 4% ethanol",0%
same,% control,"Ammania sp; Ammania sp, 5 DAYS, 0.2 mg/mL in 4% ethanol",0%
same,% control,"Ammania sp; Ammania sp, 5 DAYS, 0.4 mg/mL in 4% ethanol",0%
same,% control,"Ammania sp; Ammania sp, 12 DAYS, 0.05 mg/mL in 4% ethanol",0a %
same,% control,"Ammania sp; Ammania sp, 12 DAYS, 0.1 mg/mL in 4% ethanol",0a %
same,% control,"Ammania sp; Ammania sp, 12 DAYS, 0.2 mg/mL in 4% ethanol",0a %
same,% control,"Ammania sp; Ammania sp, 12 DAYS, 0.4 mg/mL in 4% ethanol",3b %
same,% control,"Ammania sp; Ammania sp, 21 DAYS, 0.05 mg/mL in 4% ethanol",63b %
same,% control,"Ammania sp; Ammania sp, 21 DAYS, 0.1 mg/mL in 4% ethanol",53b %
same,% control,"Ammania sp; Ammania sp, 21 DAYS, 0.2 mg/mL in 4% ethanol",70b %
same,% control,"Ammania sp; Ammania sp, 21 DAYS, 0.4 mg/mL in 4% ethanol",75b %
same,% control,"Ammania sp; red stem (Ammania sp.), highest concentration (0.4 mg/mL)",75-80%
same,% control,SCM; 64 g/ha,0%
same,% control,SCM; 125 g/ha,30%
same,% control,SCM; 250 g/ha,30%
same,% control,SCM; 500 g/ha,70%
same,% control,SCM; 1000 g/ha,95%
